# From PubChem BioAssay AID1671331
# Molecular target: Serine/threonine-protein kinase Nek6 (Homo sapiens) (UniProt Q9HC98)
# Assay: inhibition of NEK6 serine/threonine kinase activity – biochemical, Z'-LYTE FRET, direct format, recombinant human, dose response (AID 1671331)
# Sequence of Serine/threonine-protein kinase Nek6 (Homo sapiens) (Q9HC98 whole entry, looked up): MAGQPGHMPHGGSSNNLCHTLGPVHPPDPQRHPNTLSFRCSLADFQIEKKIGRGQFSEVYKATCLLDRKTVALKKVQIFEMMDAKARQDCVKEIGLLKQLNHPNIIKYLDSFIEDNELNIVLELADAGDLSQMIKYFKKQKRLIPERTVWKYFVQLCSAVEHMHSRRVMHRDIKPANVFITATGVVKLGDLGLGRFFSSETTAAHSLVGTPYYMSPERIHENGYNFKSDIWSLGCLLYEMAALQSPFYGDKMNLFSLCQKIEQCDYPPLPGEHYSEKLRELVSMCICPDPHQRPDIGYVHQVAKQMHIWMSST
smiles,measurement,value
CN1C(=O)C2(Cc3cn(C45CC67SSC(CO)(C(=O)N6C4Nc4ccccc45)N(C)C7=O)c4ccccc34)SSC1(CO)C(=O)N2C (stereo unspecified),IC50,59 nM
